Laboratory results from ChEMBL document CHEMBL3784995, “Inhibitors of HIV-1 maturation: Development of structure-activity relationship for C-28 amides based on C-3 benzoic acid-modified triterpenoids” (Bioorg Med Chem Lett, 2016).

Columns and labels:
[1] = tested on: Human immunodeficiency virus 1; assay: Antiviral activity against wild type HIV1 NL4-3 habouring Gag protein delta V370 infected in human MT2 cells after 4 to 5 days by dual-luciferase reporter gene assay; assay type: functional, organism-based; conditions: Human immunodeficiency virus 1, NL4-3, MT2
[2] = Bioavailability in cannula implanted rat at 5 mg/kg administered through oral gavage after 24 hrs by LC-MS/MS analysis; assay type: ADME, organism-based; conditions: in vivo
[3] = tested on: Human immunodeficiency virus 1; assay: Antiviral activity against wild type HIV1 NL4-3 infected in human MT2 cells after 4 to 5 days by dual-luciferase reporter gene assay; assay type: functional, organism-based; conditions: Human immunodeficiency virus 1, NL4-3, MT2
[4] = tested on: Human immunodeficiency virus 1; assay: Antiviral activity against wild type HIV1 NL4-3 infected in human MT2 cells after 4 to 5 days by dual-luciferase reporter gene assay in presence of human serum albumin; assay type: functional, organism-based; conditions: Human immunodeficiency virus 1, NL4-3, MT2
[5] = Cytotoxicity against human MT2 cells; assay type: cell-based
[6] = tested on: Human immunodeficiency virus 1; assay: Antiviral activity against wild type HIV1 NL4-3 habouring Gag protein V370A mutant infected in human MT2 cells after 4 to 5 days by dual-luciferase reporter gene assay; assay type: functional, organism-based; conditions: Human immunodeficiency virus 1, NL4-3, MT2
[7] = Metabolic stability in rat liver microsomes at 0.5 uM by LC-MS/MS analysis in presence of NADPH; assay type: ADME
[8] = AUC (0 to 6 hrs) in cannula implanted rat at 5 mg/kg administered through oral gavage after 24 hrs by LC-MS/MS analysis; assay type: ADME, organism-based; parameters: dose 5 mg/kg, time < 6 hr, route oral; conditions: in vivo
[9] = Plasma clearance in cannula implanted rat at 1 mg/kg, iv by LC-MS/MS analysis; assay type: ADME, organism-based
[10] = Metabolic stability in human liver microsomes at 0.5 uM by LC-MS/MS analysis in presence of NADPH; assay type: ADME
[11] = tested on: Human immunodeficiency virus 1; assay: Antiviral activity against wild type BVM-resistant HIV1 NL4-3 habouring Gag protein V370M mutant infected in human MT2 cells after 4 to 5 days by dual-luciferase reporter gene assay; assay type: functional, organism-based; conditions: Human immunodeficiency virus 1, NL4-3, MT2
[12] = Cmax in cannula implanted rat at 5 mg/kg administered through oral gavage after 24 hrs by LC-MS/MS analysis; assay type: ADME, organism-based; parameters: dose 5 mg/kg, route oral; conditions: in vivo
in vivo = conditions: rat, iv, 1 mg/kg
Description: Volume of distribution at steady state in cannula implanted rat at 1 mg/kg, iv by LC-MS/MS analysis

[13] = tested on: Human immunodeficiency virus 1; assay: Antiviral activity against wild type BVM-resistant HIV1 NL4-3 habouring Gag protein T371A mutant infected in human MT2 cells after 4 to 5 days by dual-luciferase reporter gene assay; assay type: functional, organism-based; conditions: Human immunodeficiency virus 1, NL4-3, MT2
[14] = (§1) Total AUC in cannula implanted rat at 5 mg/kg administered through oral gavage after 24 hrs by LC-MS/MS analysis; assay type: ADME, organism-based; parameters: dose 5 mg/kg, time AUCmax, route oral; conditions: in vivo
[15] = Plasma concentration in cannula implanted rat at 5 mg/kg administered through oral gavage after 24 hrs by LC-MS/MS analysis; assay type: ADME, organism-based
[16] = tested on: Human immunodeficiency virus 1; assay: Antiviral activity against wild type BVM-resistant HIV1 NL4-3 habouring Gag protein delta T371 infected in human MT2 cells after 4 to 5 days by dual-luciferase reporter gene assay; assay type: functional, organism-based; conditions: Human immunodeficiency virus 1, NL4-3, MT2
Rattus norvegicus = assay: as §1; assay type: ADME, organism-based; parameters: dose 5 mg/kg, time AUCmax, route oral; conditions: in vivo, 24 h

SMILES | EC50 [1] [µM] | bioavailability [2] [%] | EC50 [3] [µM] | EC50 [4] [µM] | CC50 [5] [µM] | EC50 [6] [µM] | half-life at 0.5 µM [7] [h] | AUC(0-t) at 6 h [8] [µM·h] | clearance [9] [mL/min/kg] | half-life at 0.5 µM [10] [h] | EC50 [11] [µM] | Cmax [12] [nM] | Vd (in vivo) [L/kg] | EC50 [13] [µM] | AUC at 24 h [14] [µM·h] | concentration at 24 h [15] [nM] | EC50 [16] [µM] | AUC (Rattus norvegicus) [µM·h]
C=C(C)[C@@H]1CC[C@]2(C(=O)O)CC[C@]3(C)[C@H](CC[C@@H]4[C@@]5(C)CC=C(c6ccc(C(=O)O)cc6)C(C)(C)[C@@H]5CC[C@]43C)[C@@H]12 | > 6 | 4 |  |  |  |  |  |  |  |  |  |  |  |  |  |  |  | 
C=C(C)[C@@H]1CC[C@]2(C(=O)NC)CC[C@]3(C)[C@H](CC[C@@H]4[C@@]5(C)CC=C(c6ccc(C(=O)O)cc6)C(C)(C)[C@@H]5CC[C@]43C)[C@@H]12 |  |  | 0.01 | 0.028 | 7 | 0.252 |  |  |  |  |  |  |  |  |  |  |  | 
C=C(C)[C@@H]1CC[C@]2(C(=O)NCCN(CC)CC(=O)O)CC[C@]3(C)[C@H](CC[C@@H]4[C@@]5(C)CC=C(c6ccc(C(=O)O)cc6)C(C)(C)[C@@H]5CC[C@]43C)[C@@H]12 | 0.064 |  | 0.003 |  | 17 | 0.009 | > 2 | 0.22 | 26.7 | > 2 |  |  |  |  |  |  |  | 
C=C(C)[C@@H]1CC[C@]2(C(=O)NCCc3ccccn3)CC[C@]3(C)[C@H](CC[C@@H]4[C@@]5(C)CC=C(c6ccc(C(=O)O)cc6)C(C)(C)[C@@H]5CC[C@]43C)[C@@H]12 | 0.415 | 3 | 0.015 |  | 8 | 0.019 | > 2 | 0.721 | 3.2 | 0.717 | 0.061 | 172 | 1.1 | 0.019 | 1.23 | 5 | 0.038 | 
C=C(C)[C@@H]1CC[C@]2(C(=O)NS(=O)(=O)C3CC3)CC[C@]3(C)[C@H](CC[C@@H]4[C@@]5(C)CC=C(c6ccc(C(=O)O)cc6)C(C)(C)[C@@H]5CC[C@]43C)[C@@H]12 | 1.19 |  | 0.059 | 0.166 | 18 | 0.067 |  |  |  |  |  |  |  |  |  |  |  | 
C=C(C)[C@@H]1CC[C@]2(C(=O)NCCC(C)C)CC[C@]3(C)[C@H](CC[C@@H]4[C@@]5(C)CC=C(c6ccc(C(=O)O)cc6)C(C)(C)[C@@H]5CC[C@]43C)[C@@H]12 | 1.61 |  | 0.047 |  | 11 | 0.101 |  | 1.58 | 0.6 |  |  | 731 |  |  |  |  |  | 
C=C(C)[C@@H]1CC[C@]2(C(=O)NCCN(CC)CC)CC[C@]3(C)[C@H](CC[C@@H]4[C@@]5(C)CC=C(c6ccc(C(=O)O)cc6)C(C)(C)[C@@H]5CC[C@]43C)[C@@H]12 | 0.039 |  | 0.002 |  | 33 | 0.007 |  | 0.809 | 3.3 |  |  | 229 |  |  |  |  |  | 
C=C(C)[C@@H]1CC[C@]2(C(=O)N(C)CCN(C)C)CC[C@]3(C)[C@H](CC[C@@H]4[C@@]5(C)CC=C(c6ccc(C(=O)O)cc6)C(C)(C)[C@@H]5CC[C@]43C)[C@@H]12 | 0.025 | 11 | 0.006 | 0.017 | 3 | 0.038 | 1.42 | 1.42 | 2.2 | > 2 |  | 386 |  |  | 6.87 | 108 |  | 
C=C(C)[C@@H]1CC[C@]2(C(=O)NCc3ccccn3)CC[C@]3(C)[C@H](CC[C@@H]4[C@@]5(C)CC=C(c6ccc(C(=O)O)cc6)C(C)(C)[C@@H]5CC[C@]43C)[C@@H]12 |  |  | 0.005 | 0.009 | 1 | 0.031 |  |  |  |  |  |  |  |  |  |  |  | 
C=C(C)[C@@H]1CC[C@]2(C(=O)NCCC(=O)O)CC[C@]3(C)[C@H](CC[C@@H]4[C@@]5(C)CC=C(c6ccc(C(=O)O)cc6)C(C)(C)[C@@H]5CC[C@]43C)[C@@H]12 | > 4 | 71 | 0.037 | 0.449 | 36 | 0.427 | > 2 | 43.2 | 1.2 | 1.88 |  | 9470 | 0.02 |  | 79.9 | 137 |  | 
C=C(C)[C@@H]1CC[C@]2(C(=O)NS(C)(=O)=O)CC[C@]3(C)[C@H](CC[C@@H]4[C@@]5(C)CC=C(c6ccc(C(=O)O)cc6)C(C)(C)[C@@H]5CC[C@]43C)[C@@H]12 |  |  | 0.047 | 1.52 | 16 | 0.282 |  |  |  |  |  |  |  |  |  |  |  | 
C=C(C)[C@@H]1CC[C@]2(C(=O)NCCNC(C)=O)CC[C@]3(C)[C@H](CC[C@@H]4[C@@]5(C)CC=C(c6ccc(C(=O)O)cc6)C(C)(C)[C@@H]5CC[C@]43C)[C@@H]12 | 0.361 |  | 0.005 | 0.022 | 12 | 0.024 |  |  |  |  |  |  |  |  |  |  |  | 
C=C(C)[C@@H]1CC[C@]2(C(=O)N3CCCCC3)CC[C@]3(C)[C@H](CC[C@@H]4[C@@]5(C)CC=C(c6ccc(C(=O)O)cc6)C(C)(C)[C@@H]5CC[C@]43C)[C@@H]12 |  |  | 0.369 | 1.58 | 0.2 |  |  |  |  |  |  |  |  |  |  |  |  | 
C=C(C)[C@@H]1CC[C@]2(C(=O)NCCO)CC[C@]3(C)[C@H](CC[C@@H]4[C@@]5(C)CC=C(c6ccc(C(=O)O)cc6)C(C)(C)[C@@H]5CC[C@]43C)[C@@H]12 | > 2 |  | 0.007 | 0.039 | 7 | 0.041 |  |  |  |  |  |  |  |  |  |  |  | 
C=C(C)[C@@H]1CC[C@]2(C(=O)NCCN(C)C)CC[C@]3(C)[C@H](CC[C@@H]4[C@@]5(C)CC=C(c6ccc(C(=O)O)cc6)C(C)(C)[C@@H]5CC[C@]43C)[C@@H]12 | 0.031 | 17 |  |  | 3 |  | > 2 | 1.62 | 6.1 | > 2 | 0.01 | 396 | 2.3 | 0.003 |  |  | 0.003 | 3.814
C=C(C)[C@@H]1CC[C@]2(C(=O)NCCN3CCOCC3)CC[C@]3(C)[C@H](CC[C@@H]4[C@@]5(C)CC=C(c6ccc(C(=O)O)cc6)C(C)(C)[C@@H]5CC[C@]43C)[C@@H]12 | 0.077 |  | 0.007 | 0.028 | 5 | 0.012 |  |  |  |  |  |  |  |  |  |  |  | 
C=C(C)[C@@H]1CC[C@]2(C(=O)NCCCN(C)C)CC[C@]3(C)[C@H](CC[C@@H]4[C@@]5(C)CC=C(c6ccc(C(=O)O)cc6)C(C)(C)[C@@H]5CC[C@]43C)[C@@H]12 | 0.05 |  | 0.002 | 0.003 | 0.5 | 0.009 | > 2 | 0.116 | 8.3 | > 2 |  | 36 |  |  |  |  |  | 
C=C(C)[C@@H]1CC[C@]2(C(=O)NCCN(C(C)C)C(C)C)CC[C@]3(C)[C@H](CC[C@@H]4[C@@]5(C)CC=C(c6ccc(C(=O)O)cc6)C(C)(C)[C@@H]5CC[C@]43C)[C@@H]12 | 0.069 |  | 0.004 |  | 3 | 0.013 | > 2 | 1.31 | 4.3 | > 2 |  | 302 |  |  |  |  |  | 
C=C(C)[C@@H]1CC[C@]2(C(=O)O)CC[C@]3(C)[C@H](CC[C@@H]4[C@@]5(C)CC[C@H](OC(=O)CC(C)(C)C(=O)O)C(C)(C)[C@@H]5CC[C@]43C)[C@@H]12 [BEVIRIMAT] | > 10 |  |  |  |  |  |  |  |  |  |  |  |  | 0.04 |  |  |  | 
